Legend:
C57BL/6 mouse = assay: Assessment of glucose tolerance improvement effect in mouse; assay type: in vivo; conditions: 2 h; 10 mg/kg oral, 30 min before oral glucose 2 g/kg; male C57BL/6 mouse; blood glucose AUC
Protocol: <Experimental Example 2>Assessment of glucose tolerance improvement effect in mouse
As one of anti-diabetic effect indicators, the glucose tolerance improvement effect of the above compounds was evaluated in 7-week male laboratory mouse (C57BL/6 mouse), as the effect of improving postprandial glycemic control ability.
The laboratory mouse was fasted from the day before the experiment for 16-17 hours. The compound of the present invention was orally administered 30 minutes before administrating glucose, and after 30 minutes, a glucose solution (2 g/kg/10 ml) was orally administered. A drug was prepared by suspending in a 10% Gelucire solution. At the times immediately before drug administration, immediately before glucose solution administration, 15 minutes, 30 minutes, 60 minutes, 90 minutes, and 120 minutes after glucose administration, the whole blood glucose levels was measured from tail vein using a blood glucose meter (AccuChek Active, Roche Diagnostics), and the area under the curve of a temporal blood glucose curve was calculated. From the calculated area under the blood glucose curve, the area under the blood glucose curve of a negative control group to which no glucose solution was administered was subtracted, and inhibitory activity against blood glucose increase of a control group to which only the 10% Gelucire solution and glucose solution were administered was calculated as a percentage, thereby evaluating the glucose tolerance improvement efficacy of a drug.
The results are shown in Table 3, in which the glucose tolerance improvement effect represented at a dose of 10 mg/kg was represented by classifying into three groups, under 30%, more than 30% under 40%, and more than 40%. A significant glucose tolerance improvement effect was identified in 22 compounds on which the experiment was carried out, and among those compounds, 16 compounds represented an excellent in vivo activity of 30% inhibitory dose of 10 mg/kg or less. In the following Table 3, A represents an inhibitory activity more than 40%, B represents an inhibitory activity more than 30% under 40% and C represents an inhibitory activity under 30%.

Human GPR119 = molecular target: T1, Human GPR119 (Homo sapiens, UniProt Q8TDV5); assay: Human GPR119 activation assay (cAMP, HTRF); assay type: cell-based; conditions: HEK293 cells transiently expressing human GPR119, relative to maximum effect of OEA; for Emax at 0.001 µM / Emax at 0.01 µM: 1 h, read-out: hGPR119 activation ability (cAMP assay) Relative Response % vs OEA
T1 construct: host or cells: HEK293 (ATCC)
T1 sequence (Q8TDV5 1-335): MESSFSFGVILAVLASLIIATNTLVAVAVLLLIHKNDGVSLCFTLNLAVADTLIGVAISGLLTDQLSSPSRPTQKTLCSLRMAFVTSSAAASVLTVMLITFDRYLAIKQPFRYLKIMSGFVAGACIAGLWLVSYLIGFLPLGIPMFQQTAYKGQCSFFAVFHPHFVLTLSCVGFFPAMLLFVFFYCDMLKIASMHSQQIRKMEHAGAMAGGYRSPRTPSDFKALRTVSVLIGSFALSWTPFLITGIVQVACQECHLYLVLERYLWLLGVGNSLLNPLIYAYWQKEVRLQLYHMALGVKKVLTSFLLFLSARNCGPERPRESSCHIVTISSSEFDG
Description: <Experimental Example 1>Human GPR119 activation assay
Human GPR119 was temporarily expressed on cells, thereby quantifying the amount of cyclic adenosine 3′,5′-monophosphate (cAMP) increased upon activating GPR119 by the compound of the present invention, using the product from Cysbio, by a method of HTRF (homogeneous time resolved fluorescence), and such quantification was used to refer to efficacy on GPR119 activation.
Human GPR119 expression vector (Origene) was overexpressed in […] renal epithelial cells (HEK293) (ATCC), and the cells were stabilized for 48 hours. With a solution of 11.1 mM glucose, 0.1% bovine serum albumin, and 0.5 mM IBMX (3-isobutyl-1-methylxanthine) which is a phosphodiesterase inhibitor being added to a KRBH (Krebs-Ringer Bicarbonate HEPES; Hou ZQ. et al., Mol Cell Endocrinol, 2008(291):71-78) buffer, the cells were pre-treated for 10 minutes. Thereafter, the cells were treated with the same solution containing a drug for 60 minutes, then the supernatant was removed, and the increase in cAMP in cells was quantified using a Cysbio cAMP HiRange kit.
As to the maximum efficacy of compounds tested, multiple concentration assessment for the compounds of the present invention was carried out, thereby assessing the relative activation level (%) to the maximum effect of oleoylethanolamide (OEA), an endogenous ligand of GPR119.

Row | SMILES | Emax at 0.001 µM (Human GPR119; 1 nM) | Emax at 0.01 µM (Human GPR119; 10 nM) | hGPR119 activation ability (cAMP assay) Relative Response % vs OEA (Human GPR119; 1 nM) | hGPR119 activation ability (cAMP assay) Relative Response % vs OEA (Human GPR119; 10 nM) | inhibition in vivo at 10 mg/kg (C57BL/6 mouse)
1 | CCCc1cnc(N2CCC(CCCOc3cc(F)c(-c4noc(C(C)C)n4)c(F)c3)CC2)nc1 [Example 23, 3-(2,6-difluoro-4-(3-(1-(5-propylpyrimidin-2-yl)piperidin-4-yl)propoxy)phenyl)-5-isopropyl-1,2,4-oxadiazole] | 78.3% | 141% | – | – | > 40%
2 | CCc1cnc(N2CCC(CCCOc3cc(F)c(C4=NC[C@H](CO)O4)c(F)c3)CC2)nc1 [Example 7, (R)-(2-(4-(3-(1-(5-ethylpyrimidin-2-yl)piperidin-4-yl)propoxy)-2,6-difluorophenyl)-4,5-dihydrooxazol-5-yl)methanol] | 51.3% | 170% | – | – | < 30%
3 | CCc1cnc(N2CCC(CCCOc3cc(F)c(-c4noc(C(C)C)n4)c(F)c3)CC2)nc1 [Example 15, 3-(4-(3-(1-(5-ethylpyrimidin-2-yl)piperidin-4-yl)propoxy)-2,6-difluorophenyl)-5-isopropyl-1,2,4-oxadiazole] | – | – | 87.7% | 183.8% | > 40%
4 | CCc1cnc(N2CCC(CCCOc3cc(F)c(-c4noc([C@@H](O)CC)n4)c(F)c3)CC2)nc1 [Example 19, (S)-1-(3-(4-(3-(1-(5-ethylpyrimidin-2-yl)piperidin-4-yl)propoxy)-2,6-difluorophenyl)-1,2,4-oxadiazol-5-yl) propan-1-ol] | 46.5% | 313% | – | – | 30 to 40%
5 | CCc1cnc(N2CCC(CCCOc3cc(F)c(C4=NC[C@H](C)O4)c(F)c3)CC2)nc1 [Example 4, (S)-2-(4-(3-(1-(5-ethylpyrimidin-2-yl)piperidin-4-yl)propoxy)-2,6-difluorophenyl)-5-methyl-4,5-dihydrooxazole] | 79.6% | 167% | – | – | < 30%
6 | CC(C)c1noc(N2CCC(CCCOc3cc(F)c(C4=NCC(C)(C)O4)c(F)c3)CC2)n1 [Example 12, 5-(4-(3-(4-(5,5-dimethyl-4,5-dihydrooxazol-2-yl)-3,5-difluorophenoxy)propyl)piperidin-1-yl)-3-isopropyl-1,2,4-oxadiazole] | 116% | 232% | – | – | > 40%
7 | CCc1cnc(N2CCC(CCCOc3cc(F)c(-c4noc(C(C)(C)CO)n4)c(F)c3)CC2)nc1 [Example 22, 2-(3-(4-(3-(1-(5-ethylpyrimidin-2-yl)piperidin-4-yl)propoxy)-2,6-difluorophenyl)-1,2,4-oxadiazol-5-yl)-2-methylpropan-1-ol] | 54.9% | 178% | – | – | 30 to 40%
8 | CC(C)c1noc(N2CCC(CCCOc3cc(F)c(C4=NC[C@H](C)O4)c(F)c3)CC2)n1 [Example 11, (S)-5-(4-(3-(3,5-difluoro-4-(5-methyl-4,5-dihydrooxazol-2-yl)phenoxy)propyl)piperidin-1-yl)-3-isopropyl-1,2,4-oxadiazole] | 184% | 266% | – | – | < 30%
9 | CCCCCc1cnc(N2CCC(CCCOc3cc(F)c(-c4noc(C(C)C)n4)c(F)c3)CC2)nc1 [Example 24, 3-(2,6-difluoro-4-(3-(1-(5-pentylpyrimidin-2-yl)piperidin-4-yl)propoxy)phenyl)-5-isopropyl-1,2,4-oxadiazole] | 132% | 309% | – | – | < 30%
10 | CCc1cnc(N2CCC(CCCOc3cc(F)c(-c4noc(C)n4)c(F)c3)CC2)nc1 [Example 13, 3-(4-(3-(1-(5-ethylpyrimidin-2-yl)piperidin-4-yl)propoxy)-2,6-difluorophenyl)-5-methyl-1,2,4-oxadiazole] | 49.4% | 126% | – | – | 30 to 40%

The next lines start with results.

Row | Emax at 0.001 µM (Human GPR119; 1 nM) | Emax at 0.01 µM (Human GPR119; 10 nM) | hGPR119 activation ability (cAMP assay) Relative Response % vs OEA (Human GPR119; 1 nM) | hGPR119 activation ability (cAMP assay) Relative Response % vs OEA (Human GPR119; 10 nM) | SMILES | inhibition in vivo at 10 mg/kg (C57BL/6 mouse)
11 | 260% | 538% | – | – | CCc1cnc(N2CCC(CCCOc3cc(F)c(-c4nnc(CC)o4)c(F)c3)CC2)nc1 [Example 43, 2-ethyl-5-(4-(3-(1-(5-ethylpyrimidin-2-yl)piperidin-4-yl)propoxy)-2,6-difluorophenyl)-1,3,4-oxadiazole] | > 40%
12 | 168% | 266% | – | – | Cc1nnc(-c2c(F)cc(OCCCC3CCN(c4nc(C(C)C)no4)CC3)cc2F)o1 [Example 55, 5-(4-(3-(3,5-difluoro-4-(5-methyl-1,3,4-oxadiazol-2-yl)phenoxy)propyl)piperidin-1-yl)-3-isopropyl-1,2,4-oxadiazole] | 30 to 40%
13 | 127% | 150% | – | – | CCc1cnc(N2CCC(CCCOc3cc(F)c(-c4nnc(C)o4)c(F)c3)CC2)nc1 [Example 42, 2-(4-(3-(1-(5-ethylpyrimidin-2-yl)piperidin-4-yl)propoxy)-2,6-difluorophenyl)-5-methyl-1,3,4-oxadiazole] | > 40%
14 | 159% | 274% | – | – | CC(C)c1nc(-c2c(F)cc(OCCCC3CCN(c4ncc(C(F)(F)F)cn4)CC3)cc2F)no1 [Example 25, 3-(2,6-difluoro-4-(3-(1-(5-(trifluoromethyl)pyrimidin-2-yl)piperidin-4-yl)propoxy)phenyl)-5-isopropyl-1,2,4-oxadiazole] | < 30%
15 | 209% | 239% | – | – | Cc1nnc(-c2c(F)cc(OCCCC3CCN(c4ncc(C(F)(F)F)cn4)CC3)cc2F)o1 [Example 46, 2-(2,6-difluoro-4-(3-(1-(5-(trifluoromethyl)pyrimidin-2-yl)piperidin-4-yl)propoxy)phenyl)-5-methyl-1,3,4-oxadiazole] | > 40%
16 | 66% | 218% | – | – | CCc1nnc(-c2c(F)cc(OCCCC3CCN(c4ncc(C(F)(F)F)cn4)CC3)cc2F)o1 [Example 47, 2-(2,6-difluoro-4-(3-(1-(5-(trifluoromethyl)pyrimidin-2-yl)piperidin-4-yl)propoxy)phenyl)-5-ethyl-1,3,4-oxadiazole] | > 40%
17 | 255% | 395% | – | – | CC(C)c1noc(N2CCC(CCCOc3cc(F)c(-c4nnc(C(C)C)o4)c(F)c3)CC2)n1 [Example 57, 5-(4-(3-(3,5-difluoro-4-(5-isopropyl-1,3,4-oxadiazol-2-yl)phenoxy)propyl)piperidin-1-yl)-3-isopropyl-1,2,4-oxadiazole] | 30 to 40%
18 | 23.8% | 115% | – | – | CC(C)c1nc(-c2c(F)cc(OCCCC3CCN(c4ncc(Cl)cn4)CC3)cc2F)no1 [Example 28, 3-(4-(3-(1-(5-chloropyrimidin-2-yl)piperidin-4-yl)propoxy)-2,6-difluorophenyl)-5-isopropyl-1,2,4-oxadiazole] | < 30%
19 | 102% | 120% | – | – | CC(C)c1nc(-c2c(F)cc(OCCCC3CCN(c4ccc(C(F)(F)F)cn4)CC3)cc2F)no1 [Example 38, 3-(2,6-difluoro-4-(3-(1-(5-(trifluoromethyl)pyridin-2-yl)piperidin-4-yl)propoxy)phenyl)-5-isopropyl-1,2,4-oxadiazole] | < 30%
